From patent publication US7411066B2, “Amino methylated 2-pyridinones” (priority 2004, dated 2008)

Columns and labels:
NU14 biofilm = test: Biofilm Assay (crystal violet stain on PVC plates); assay type: cell-based, Escherichia coli; conditions: 48 hrs at room temperature, absorbance at 600 nm; untreated NU14 = 100%
Description: The Biofilm Assay was carried out according to the following steps:
Day 1 Set Up Biofilm Growth on PVC Plates
1. Sterilize PVC plates (96-well round bottom polyvinyl chloride [PVC] plates; Falcon #353911) and PVC Lids (Falcon #353913) in tissue culture hood under UV irradiation for at least 30 min.
2. Make dilution (from overnight cultures) or suspension (from either colonies on plates or freezer stocks) of bacterial cultures. Make enough of bacterial cultures for the number of wells needed. Bacterial culture need to be very dilute: at least 1:1,000 fold dilution from overnight cultures or a small quantity from colonies or freezer stocks.
3. Add 100 μl of bacterial cultures into each well. Make sure to have 1 well with LB alone as negative control and 1 well without anything for blank.
4. Cover plates with lids and leave plates undisturbed at room temperature for 48 hrs.
Day 3 Assay Biofilm With Crystal Violet Stain
5. Prepare enough PBS (w/out Mg^2+ Ca^2+) to wash biofilm plates (need at least 3 L PBS for 1-5 plates). Could use mpH2O instead of PBS.
6. Get a clean 4 L plastic beaker. Cover the bench with a large piece of absorbent pad.
7. Fill 3 containers (large enough to dip the 96-well plates in) with PBS.
8. Start washing a biofilm plate by dumping out bacterial cultures into the beaker. (Treat contents in this beaker as biohazard. Need to bleach the content before emptying it into drain.)
9. Fill the biofilm plate in the first PBS container and shake off PBS in the beaker. Rinse the biofilm 1× in the first PBS container. Put the biofilm plate into the second PBS container and rinse 2×.
10. Put the biofilm plate in the third PBS container and let sit.
11. Proceed to wash a second biofilm plate if there are any.
12. While the second biofilm plate is in the second container, rinse the first biofilm plate 1× and remove it from PBS. Decant residual PBS by banging the plate on paper towels on the bench. Leave the plate up-side-down on a clean paper towel and let the plate dry.
13. Put the second biofilm plate into the third PBS container and let sit.
14. Proceed to wash a third biofilm plate if applicable.
15. Repeat steps 8-14 until all plates are washed.
16. Let washed biofilm plates air-dry for at least 15 min.
Crystal Violet Stain and Wash
17. Fill 4 containers (large enough to dip the 96-well plates in) with PBS.
18. With a multi-channel pipet, add 125 μl of 1% Crystal Violet (in mpH2O). Stain biofilm plates sequentially for 10 min. (not more than 15 min). Give at least 2 minute break in-between staining each plates. If more than 4 biofilm plates, might want to consider staining and washing them in batches.
19. Start washing biofilm plates as above.
20. Let the washed plates air-dry for 10 minor so. […]
24. Proceed immediately to the Plate Reader and read the absorbance of the plate at 600 nm. […]

[1] = tested on: NU14 adherence to type 5637 bladder cell line; test: Infection of bladder cells in vitro (Adherence Assay); assay type: cell-based, Escherichia coli; conditions: 5637 bladder cells; untreated NU14 = 100%
Description: Infection of Bladder Cells in vitro (Adherence Assay)
The infection of bladder cells in vitro was carried out according to the following steps:
Preparation of Tissue Culture Cells (Type 5637 Bladder Cell Line)
1. Place 1 ml of RPMI/10% FBS containing 1:20 dilution of 5637 cells in each well of 24 well plate.
2. Place in incubator for 3 days or until confluent growth.
Preparation of Bacterial Cells (Strains NU14 and UTI89)
1. Inoculate 20 ml of LB containing NU14 with a single colony or a loop from a frozen stock to a 250 ml flask.
2. Static growth at 37° C. for 2 days to induce pili production.
3. Harvest cells at 4,000×g for 10 minutes.
4. Resuspend in 5 ml of PBS ([…])
Infection of Tissue Culture Cells In Vitro
1. Wash each well with PBS MgCl2/CaCl2.
2. Place 1 ml of fresh medium to each well.
3. Add 10 μl of bacterial cells to each well. Triplicate plates.
4. Spin plate at 1800 rpm for 5 minutes.
5. View under 40× to see−2-3 bacterial cells/epithelial cell.
6. Place in lower incubator for 2 hours.
7. Wash two plates 5× with PBS MgCl2/CaCl2. Lyse by addition of 0.1% sarkosyl/0.5% glucose/PBS—MgCl2/CaCl2 one set and dilute for CFU.

SMILES | Bioflim Assay % of Wild Type (NU14 biofilm) | Adherence Assay % of Wild Type [1]
CN(C)Cc1c(Cc2cccc3ccccc23)c(-c2ccccc2)c2n(c1=O)[C@H](C(=O)[O-])CS2.[Li+] | 6.9% | 21.8%
O=C([O-])[C@@H]1CSc2c(C3CC3)c(Cc3cccc4ccccc34)c(CN3CCOCC3)c(=O)n21.[Li+] | 8.3% | 12.2%
O=C([O-])[C@@H]1CSc2c(-c3ccccc3)c(Cc3cccc4ccccc34)c(CN3CCOCC3)c(=O)n21.[Li+] | 6.8% | 14.3%
Cc1c(-c2ccccc2)c2n(c(=O)c1CN(C)C)[C@H](C(=O)[O-])CS2.[Li+] | 73.1% | 97.6%
